Patent publication US6569842B2 (Board of Trustees of the University of Illinois, The, priority 2000, dated 2003)
In brackets after ≈: the same amount, converted by molar mass.

How the values were obtained:
U373 (glioma) = assay: Cytotoxicity against cultured U373 cells (SRB); format: cell-based, human; details: Method A, sample dissolved in DMSO; three days incubation
Protocol: (§1) Cytotoxicity of the crude extracts and purified compounds was determined in a number of cultured human cancer cell lines. Table 1 sets forth the various types of cancer cells evaluated using Method A. The cells were cultured in appropriate media and under standard conditions. To maintain logarithmic growth, the media were changed 24 hours prior to cytotoxic assays. On the day of the assay, the cells were harvested by trypsinization, counted, diluted in media, and added to 96-well plates containing test compounds dissolved in DMSO. The final DMSO concentration was 0.05%.
(§2) In each of Methods A-C, the plates were incubated for three days. Following the incubation period, the cells were fixed and stained with sulforhodamine B (SRB) dye. The bound dye was liberated with Tris base, and the OD515 (optical density at 515 nm) was measured on an ELISA reader. The growth of the betulinic acid-treated cells was determined by the OD515 values, and the growth was compared to the OD515 values of treated control cells of Methods A-C. Dose response studies were performed to generate ED50 values. As used herein, the term OD515 is defined as optical density at 515 nm, and the term ED50 is defined as the concentration of a compound required to reduce cell number by 50%.

LNCaP (prostate) = assay: Cytotoxicity against cultured LNCaP cells (SRB); format: cell-based, human; details: Method A, sample dissolved in DMSO; three days incubation
Protocol: as §1, §2

ZR-75-1 (breast) = assay: Cytotoxicity against cultured ZR-75-1 cells (SRB); format: cell-based, human; details: Method A, sample dissolved in DMSO, three days incubation; for IC50: Homo sapiens, ZR-75-1, 72 h, read-out: ED50 ZR 75-1
Protocol: as §1, §2

BC-1 (breast) = assay: Cytotoxicity against cultured BC-1 cells (SRB); format: cell-based, human; details: Method A, sample dissolved in DMSO, three days incubation; for IC50: Homo sapiens, BC1, 72 h, read-out: ED50 BC-1
Protocol: as §1
as §2, with “The growth of the betulinic acid-treated cells was determined by the OD515 values, and the growth was compared to the OD515 values of treated control cells of Methods A-C.” left out

[1] = system: KB (human oral epidermoid carcinoma); assay: Cytotoxicity against cultured KB cells (SRB); format: cell-based; details: Method A, sample dissolved in DMSO; three days incubation
Protocol: as §1, §2

MEL-2 (melanoma) = assay: Cytotoxicity against cultured MEL-2 cells (SRB); format: cell-based, human; details: Method A, sample dissolved in DMSO, three days incubation; for IC50: Homo sapiens, MEL2, 72 h, read-out: ED50 MEL-2
Protocol: as §1, §2

COL-2 (colon) = assay: Cytotoxicity against cultured COL-2 cells (SRB); format: cell-based, human; details: Method A, sample dissolved in DMSO, three days incubation; for IC50: Homo sapiens, Col2, 72 h, read-out: ED50 COL-2
Protocol: as §1, §2

LU-1 (lung) = assay: Cytotoxicity against cultured LU-1 cells (SRB); format: cell-based, human; details: Method A, sample dissolved in DMSO, three days incubation; for IC50: Homo sapiens, Lu1, 72 h, read-out: ED50 LU-1
Protocol: as §1, §2

A431 (squamous cells) = assay: Cytotoxicity against cultured A431 cells (SRB); format: cell-based, human; details: Method A, sample dissolved in DMSO; three days incubation
Protocol: as §1, §2

HT-1080 (sarcoma) = assay: Cytotoxicity against cultured HT-1080 cells (SRB); format: cell-based, human; details: Method A, sample dissolved in DMSO, three days incubation; for IC50: Homo sapiens, HT-1080, 72 h, read-out: ED50 HT-1080
Protocol: as §1, §2

a variety of tumors = details: Phase II trials in Japan; cited from earlier work

CC(=O)O[C@H]1C(=O)[C@@]2(C)[C@H]([C@H](OC(=O)c3ccccc3)[C@]3(O)C[C@H](OC(=O)[C@H](O)[C@@H](NC(=O)c4ccccc4)c4ccccc4)C(C)=C1C3(C)C)[C@]1(OC(C)=O)CO[C@@H]1C[C@@H]2O [Taxol, paclitaxel]
ED50 U373 (U373 (glioma)): 0.008 µg/mL (≈ 0.00937 µM)
ED50 LNCaP (LNCaP (prostate)): 0.02 µg/mL (≈ 0.0234 µM)
IC50 (ZR-75-1 (breast)): 0.02 µg/mL (≈ 0.0234 µM)
IC50 (BC-1 (breast)): 0.02 µg/mL (≈ 0.0234 µM)
ED50 KB [1]: 0.02 µg/mL (≈ 0.0234 µM)
IC50 (MEL-2 (melanoma)): 0.06 µg/mL (≈ 0.0703 µM)
IC50 (COL-2 (colon)): 0.02 µg/mL (≈ 0.0234 µM)

CC[C@]1(O)C[C@@H]2CN(CCc3c([nH]c4ccccc34)[C@@](C(=O)OC)(c3cc4c(cc3OC)N(C)[C@H]3[C@@](O)(C(=O)OC)[C@H](OC(C)=O)[C@]5(CC)C=CCN6CC[C@]43[C@@H]65)C2)C1 [Vinblastine]
IC50 (LU-1 (lung)): 0.02 µg/mL (≈ 0.0247 µM)
ED50 U373 (U373 (glioma)): 1.1 µg/mL (≈ 1.36 µM)
ED50 A431 (A431 (squamous cells)): 0.05 µg/mL (≈ 0.0617 µM)
ED50 LNCaP (LNCaP (prostate)): 0.1 µg/mL (≈ 0.123 µM)
IC50 (ZR-75-1 (breast)): 0.3 µg/mL (≈ 0.37 µM)
IC50 (BC-1 (breast)): 0.06 µg/mL (≈ 0.074 µM)
ED50 KB [1]: 0.04 µg/mL (≈ 0.0493 µM)
IC50 (HT-1080 (sarcoma)): 0.02 µg/mL (≈ 0.0247 µM)
IC50 (MEL-2 (melanoma)): 0.01 µg/mL (≈ 0.0123 µM)
IC50 (COL-2 (colon)): 0.01 µg/mL (≈ 0.0123 µM)

CC[C@]1(O)C[C@H]2CN(CCc3c([nH]c4ccccc34)[C@@](C(=O)OC)(c3cc4c(cc3OC)N(C=O)[C@H]3[C@@](O)(C(=O)OC)[C@H](OC(C)=O)[C@]5(CC)C=CCN6CC[C@]43[C@@H]65)C2)C1 [Vincristine]
IC50 (LU-1 (lung)): 0.05 µg/mL (≈ 0.0606 µM)
ED50 U373 (U373 (glioma)): 0.06 µg/mL (≈ 0.0727 µM)
ED50 A431 (A431 (squamous cells)): 0.01 µg/mL (≈ 0.0121 µM)
ED50 LNCaP (LNCaP (prostate)): 0.1 µg/mL (≈ 0.121 µM)
IC50 (ZR-75-1 (breast)): 0.4 µg/mL (≈ 0.485 µM)
IC50 (BC-1 (breast)): 0.01 µg/mL (≈ 0.0121 µM)
IC50 (HT-1080 (sarcoma)): 0.02 µg/mL (≈ 0.0242 µM)
IC50 (MEL-2 (melanoma)): 0.02 µg/mL (≈ 0.0242 µM)
IC50 (COL-2 (colon)): 0.02 µg/mL (≈ 0.0242 µM)

CCc1c2c(nc3ccc(OC(=O)N4CCC(N5CCCCC5)CC4)cc13)-c1cc3c(c(=O)n1C2)COC(=O)[C@]3(O)CC [irinotican]
response rate, lymphoma (a variety of tumors): 0%
response rate, small cell lung (a variety of tumors): 50%

Mithramycin A
ED50 LU-1 (LU-1 (lung)): 0.2 µg/mL
ED50 U373 (U373 (glioma)): 0.04 µg/mL
ED50 A431 (A431 (squamous cells)): 0.09 µg/mL
ED50 LNCaP (LNCaP (prostate)): 0.05 µg/mL
ED50 ZR 75-1 (ZR-75-1 (breast)): 0.2 µg/mL
ED50 BC-1 (BC-1 (breast)): 0.3 µg/mL
ED50 KB [1]: 0.09 µg/mL
ED50 HT-1080 (HT-1080 (sarcoma)): 1.5 µg/mL
ED50 MEL-2 (MEL-2 (melanoma)): 1.2 µg/mL
ED50 COL-2 (COL-2 (colon)): 0.06 µg/mL
